According to US7858655B2, “Drug preparation comprising α-lipoic acid, ambroxol and/or inhibitors of the angiotensin-converting enzyme (ACE) and its use for the treatment of neurodegenerative diseases” (Keyneurotek Pharmaceuticals AG, priority 2004, dated 2010):
Where a name gives a salt, the structure may show the parent alone.

Test system: neuronal cells in organotypical hippocampal tissue cuts
Assay: transient oxygen/glucose deprivation (OGD) of organotypical hippocampal tissue cuts, neuronal damage
Type: cell-based, rats
Conditions: for neuronal damage, % of the damaged surface area, Median / neuronal damage, % of the damaged surface area, Average Value: after standard OGD with the substance applied, cocktail = α-lipoic acid 10 μg/ml, ambroxol 10 μM, Enalapril 20 μg/ml; for neuronal damage, % of the damaged surface area, Average Value: Control OGD (vehicle) 11.70-13.98; for neuroprotective effect, reduction of the neuronal damage after OGD (in words): after transient OGD, versus standard damage
From the text: For examining the neuroprotective effect of the thiol-reactive substances, the procedure of a transient ischemia for organotypical hippocampal tissue cuts was used, which procedure was standardized in our laboratory. By such a procedure, there are obtained three-dimensional cultivated explantates having a high prediction value for subsequent clinical experiments. In those tissue cultures containing neuronal as well as non-neuronal cells, highly complex intercellular connections are maintained largely. They are of extraordinary importance for the functionality of the whole CNS. The cerebral tissue cultures are exposed to a degenerative event which results into a death of neuronal cells in analogy to clinical situations. The tissue cuts (375 μm) were prepared subsequently from the hippocampus of rats (P7). The cultivation of those cut cultures was effected on membrane inserts having a pore size of 0.02 μm. After 10 to 12 days of cultivation (37° C. in an incubator; 3.3% CO2; 98% relative air humidity), the restructuration processes within the tissue cultures were finished, and a clinical relevant neurodegenerative event was simulated on the tissue cuts by means of a transient oxygen/glucose deprivation. The effect of the substanc(es) was measured in the form of a standard damage change (vehicle application). […] There was quantified the neuronal damage after a standard OGD with and without the application of the cocktail as well as the damage by the application of the cocktail per se (optional toxicity of the substance). The damage is expressed in % of the damaged surface area. In order to obtain such figures, in each tissue cut the whole surface area was compared with the damaged surface area. […] The experiments are based on the protocol described in Example 2. In the course of the experiments shown in FIGS. […], the protective effect of the cocktail was compared with the standard damage after OGD and with the effect resulting from an application of the single substances. […] Tables […] show the relevant statistical parameters.

Row | Compound | neuronal damage, % of the damaged surface area, Median | neuronal damage, % of the damaged surface area, Average Value | neuroprotective effect, reduction of the neuronal damage after OGD (in words)
1 | Nc1c(Br)cc(Br)cc1CNC1CCC(O)CC1 (stereo not drawn) [Ambroxol, trans-4-(2-amino-3,5-dibromobenzylamino-) cyclohexane hydrochloride] | 8.32% | 10.79% | neither α-lipoic acid nor ambroxol nor the ACE inhibitor, if applied alone, were capable of reducing the neuronal damage significantly
2 | O=C(O)CCCC[C@@H]1CCSS1 [α-Lipoic Acid, (R)-5-(1,2-dithiolane-3-yl-)pentanoic acid] | 13.54% | 14.82% | neither α-lipoic acid nor ambroxol nor the ACE inhibitor, if applied alone, were capable of reducing the neuronal damage significantly
3 | CCOC(=O)[C@H](CCc1ccccc1)N[C@@H](C)C(=O)N1CCC[C@H]1C(=O)O [Enalapril, 1-{N-[(S)-1-Ethoxycarbonyl-3-phenylpropyl-]L-alanyl-}L-proline] | 8.70% | 11.23% | neither α-lipoic acid nor ambroxol nor the ACE inhibitor, if applied alone, were capable of reducing the neuronal damage significantly
